Assay results from patent US11040952B2, “Phthalazinone compound, method for preparation thereof, pharmaceutical composition thereof, and use thereof” (SHANGHAI INSTITUTE OF MATERIA MEDICA, CHINESE ACADEMY OF …, priority 2017, dated 2021).

Key:
[1] = system: HBV; assay: HBV DNA content in the supernatant of cell culture (real-time PCR); format: cell-based, hepatitis B virus (HBV); settings: Hepatitis B virus, HepG2.2.15, 192 h, inhibition of HBV DNA replication, HepG2.2.15 supernatant, 8 days
Method: (§1) Human hepatoblastoma cell line HepG2.2.15 stably transfected with full-length HBV (provided by Shanghai Institute of Materia Medica, Chinese Academy of Sciences)
(§2) HepG2.2.15 cells were cultured and passaged according to conventional methods. DMEM containing 10% (v/v) bovine serum and the selective antibiotic G418 was used as a medium, the cells were cultured in an incubator at 37° C. under 5% CO2 for 8 days (the medium was exchanged on the 4th day).
(§3) The test compounds were formulated with DMSO into a 40 mM stock solution, which was then prepared into a solution at the defined highest concentration using a DMEM medium containing 10% Hyclone™ Fetal Bovine Serum, followed by diluting the same; the positive drug was lamivudine, which was also prepared into a solution at the defined concentration with the DMEM medium containing 10% Hyclone™ Fetal Bovine Serum.
HepG2.2.15 cells were treated with compounds at different concentrations for 8 days (the medium was exchanged on the 4th day), and the supernatant was aspirated, and the HBV DNA contained in the mature virus particles in the supernatant was quantitated by using a real-time PCR method.
1) The supernatant DNA from a 96-well plate, 200 μl/well, was collected, wherein the contents in the duplicate wells were collected into a same EP tube, and centrifuged at 4000 rcf for 5 min, and the supernatant was collected;
2) 200 μl of the supernatant was added into a 1.5 ml EP tube, added with 20 μl of proteinase K and 200 μl of Buffer AL (Qiagen, DNeasy® Blood & Tissue Kit), vortexed to be mixed thoroughly, and incubated at 56° C. for 10 min;
3) 200 μl of ethanol was added and vortexed to be mixed thoroughly;
4) all the liquid obtained from step 3) was added into a DNeasy Mini spin column (Qiagen, DNeasy® Blood & Tissue Kit) placed in a 2 ml waste liquid collection tube, and centrifuged at 6000 rcf for 1 min, and the supernatant was discarded;
5) the DNeasy Mini spin column was placed in a new 2 ml waste liquid collection tube, added with 500 μl of Buffer AW1 (Qiagen, DNeasy® Blood & Tissue Kit), and centrifuged at 6000 rcf for 1 min, and the supernatant was discarded;
6) the DNeasy Mini spin column was placed in a new 2 ml waste liquid collection tube, added with 500 μl of Buffer AW2, (Qiagen, DNeasy® Blood & Tissue Kit), and centrifuged at 20000 rcf for 3 min, and the supernatant was discarded;
7) the DNeasy Mini spin column was placed in anew 1.5 ml EP tube, 50 μl of Buffer AE (Qiagen, DNeasy® Blood & Tissue Kit) was pipetted and directly applied onto the membrane of the DNeasy Mini spin column, which was then left at room temperature for 5 min, and centrifuged at 6000 rcf for 1 min to elute the DNA from the membrane, the DNeasy Mini spin column was discarded, and the DNA sample was collected and stored at −20° C.
1) Standard curve: 1e^7-1e^4 IU/ml, the sample amount was 1 μl, a blank well was set so as to check whether the reaction system is polluted or not;
2) 1 μl of a DNA sample was added in sequence;
3) Addition of enzyme and reaction buffer: two tubes of the reaction solution were first added into the enzyme, mixed well and centrifuged slightly, placed on ice, added with the sample, followed by addition of 19 μl of the enzyme reaction solution, wherein, during the addition, the DNA sample should be sure of not being touched to cause contamination;
4) the sample was sealed with a sealing film and centrifuged;
Stage 2: 10 cycles • Step 1: 93° C., 45 s • Step 2: 55° C., 1 min Stage 3: 45 cycles • Step 1: 93° C., 30 s • Step 2: 55° C., 45 s
Detection: data were collected after completing the step 2 (55° C., 45 s) of the stage 3.
The experimental data were processed by using the Origin software and IC50 was calculated.

[2] = MTT assay for cytotoxicity; format: cell-based, Human; settings: human, HepG2.2.15 cells, half (50%) lethal concentration
Method: as §1, §2, §3
HepG2.2.15 cells were seeded at 5×10^3 cells/well in a 96-well plate, and cultured for eight days in the presence of the compounds according to the above method, and then 200 μl of the supernatant was taken out, followed by addition of the MTT solution. After 4 hours of culture, a lysate was added. After 12 hours of culture, the OD570 was measured on a microplate reader. By comparing with the absorbance of the control well, the percentage of viable cells was calculated, and CC50, the concentration required for the reduction of cell viability by 50%, was calculated.

Structure (SMILES) | IC50 [1] [nM] | CC50 at 8 days [2] [nM]
CCNCCNc1nc(F)c(-c2nn(Cc3ccc(C#N)cc3)c(=O)c3ccccc23)cc1Cl [IV-48] | 516 | 7380
COCCOCCOCCNc1ccc(-c2nn(Cc3ccc(C#N)cc3)c(=O)c3ccccc23)c(F)n1 [IV-49] | 166 | 93600
COCCOCCOCCNc1nc(F)c(-c2nn(Cc3ccc(C#N)cc3)c(=O)c3ccccc23)cc1Cl [IV-50] | 9.65 | > 100000
CC(C)(C)OC(=O)CCCNc1nc(F)c(-c2nn(Cc3ccc(C#N)cc3)c(=O)c3ccccc23)cc1Cl [IV-51] | 92 | 89900
N#Cc1ccc(Cn2nc(-c3cc(Cl)c(NCCCC(=O)O)nc3F)c3ccccc3c2=O)cc1 [IV-52] | 84.5 | > 100000
CCNCCCNc1ccc(-c2nn(Cc3ccc(C#N)cc3)c(=O)c3ccccc23)c(F)n1 [IV-53] | 1070 | 18100
CCNCCCNc1nc(F)c(-c2nn(Cc3ccc(C#N)cc3)c(=O)c3ccccc23)cc1Cl [IV-54] | 470 | 8550
CCNCCCCNc1nc(F)c(-c2nn(Cc3ccc(C#N)cc3)c(=O)c3ccccc23)cc1Cl [IV-55] | 90 | 2560
CCOCCOCCNc1ccc(-c2nn(Cc3ccc(C#N)cc3)c(=O)c3ccccc23)c(F)n1 [IV-56] | 214 | > 100000
CCOCCOCCNc1nc(F)c(-c2nn(Cc3ccc(C#N)cc3)c(=O)c3ccccc23)cc1Cl [IV-57] | 87.8 | ≥ 100000
CC(C)(C)OC(=O)COCCNc1ccc(-c2nn(Cc3ccc(C#N)cc3)c(=O)c3ccccc23)c(F)n1 [IV-58] | 5300 | > 100000
CC(C)(C)OC(=O)COCCNc1nc(F)c(-c2nn(Cc3ccc(C#N)cc3)c(=O)c3ccccc23)cc1Cl [IV-59] | 780 | > 100000
N#Cc1ccc(Cn2nc(-c3cc(Cl)c(NCCOCC(=O)O)nc3F)c3ccccc3c2=O)cc1 [IV-60] | 766 | > 100000
CC(C)(C)OC(=O)CCNc1ccc(-c2nn(Cc3ccc(C#N)cc3)c(=O)c3ccccc23)c(F)n1 [IV-61] | 465 | 195000
CC(C)(C)OC(=O)CCNc1nc(F)c(-c2nn(Cc3ccc(C#N)cc3)c(=O)c3ccccc23)cc1Cl [IV-62] | 444 | > 100000
N#Cc1ccc(Cn2nc(-c3cc(Cl)c(NCCC(=O)O)nc3F)c3ccccc3c2=O)cc1 [IV-63] | 262 | > 100000
COC(=O)CCCNc1ccc(-c2nn(Cc3ccc(C#N)cc3)c(=O)c3ccccc23)c(F)n1 [IV-64] | 1220 | > 100000
COC(=O)CCCNc1nc(F)c(-c2nn(Cc3ccc(C#N)cc3)c(=O)c3ccccc23)cc1Cl [IV-65] | 116 | > 100000
N#Cc1ccc(Cn2nc(-c3ccc(NCCCO)nc3F)c3ccccc3c2=O)cc1 [IV-66] | 180 | 94000

Structure (SMILES) | IC50 [1] [nM] | CC50 at 8 days [2] [nM]
N#Cc1ccc(Cn2nc(-c3cc(Cl)c(NCCCO)nc3F)c3ccccc3c2=O)cc1 [IV-67] | 4.2 | > 100000
N#Cc1ccc(Cn2nc(-c3ccc(NCCCCO)nc3F)c3ccccc3c2=O)cc1 [IV-68] | 332 | > 100000
N#Cc1ccc(Cn2nc(-c3cc(Cl)c(NCCCCO)nc3F)c3ccccc3c2=O)cc1 [IV-69] | 8.1 | 25000
CCOC(=O)CCNc1ccc(-c2nn(Cc3ccc(C#N)cc3)c(=O)c3ccccc23)c(F)n1 [IV-70] | 3320 | > 100000
CCOC(=O)CCNc1nc(F)c(-c2nn(Cc3ccc(C#N)cc3)c(=O)c3ccccc23)cc1Cl [IV-71] | 2780 | > 100000
COC(=O)CCNc1ccc(-c2nn(Cc3ccc(C#N)cc3)c(=O)c3ccccc23)c(F)n1 [IV-72] | 1720 | > 100000
COC(=O)CCNc1nc(F)c(-c2nn(Cc3ccc(C#N)cc3)c(=O)c3ccccc23)cc1Cl [IV-73] | 215 | > 100000
CS(=O)(=O)CCNc1ccc(-c2nn(Cc3ccc(C#N)cc3)c(=O)c3ccccc23)c(F)n1 [IV-74] | 130 | > 100000
CS(=O)(=O)CCNc1nc(F)c(-c2nn(Cc3ccc(C#N)cc3)c(=O)c3ccccc23)cc1Cl [IV-75] | 36.6 | > 100000
N#Cc1ccc(Cn2nc(-c3ccc(NCCO)nc3F)c3ccccc3c2=O)cc1 [IV-76] | 202 | > 100000
N#Cc1ccc(Cn2nc(-c3cc(Cl)c(NCCO)nc3F)c3ccccc3c2=O)cc1 [IV-77] | 27.7 | 32100
CC1(C)OCC(CNc2ccc(-c3nn(Cc4ccc(C#N)cc4)c(=O)c4ccccc34)c(F)n2)O1 (centres unmarked) [IV-78] | 341 | > 100000
CC1(C)OCC(CNc2nc(F)c(-c3nn(Cc4ccc(C#N)cc4)c(=O)c4ccccc34)cc2Cl)O1 (centres unmarked) [IV-79] | 347 | > 100000
N#Cc1ccc(Cn2nc(-c3cc(Cl)c(NCC(O)CO)nc3F)c3ccccc3c2=O)cc1 (centres unmarked) [IV-80] | < 98 | > 100000
CC(O)CNc1ccc(-c2nn(Cc3ccc(C#N)cc3)c(=O)c3ccccc23)c(F)n1 (centres unmarked) [IV-81] | 334 | 65200
CC(O)CNc1nc(F)c(-c2nn(Cc3ccc(C#N)cc3)c(=O)c3ccccc23)cc1Cl (centres unmarked) [IV-82] | 209 | 71900
N#Cc1ccc(Cn2nc(-c3ccc(NCCC(F)(F)F)nc3F)c3ccccc3c2=O)cc1 [IV-83] | 413 | > 100000
N#Cc1ccc(Cn2nc(-c3cc(Cl)c(NCCC(F)(F)F)nc3F)c3ccccc3c2=O)cc1 [IV-84] | < 98 | 63500
